Measurements reported in ChEMBL document CHEMBL1156251, “Structure--activity relationships of polymyxin antibiotics” (J Med Chem, 2010).
≈ marks a conversion by molar mass, not a printed value.

Legend:
Lipopolysaccharide (LPS) = assay: Displacement of dansyl-PMB from LPS by isothermal titration calorimetry
Pseudomonas aeruginosa = assay: Antimicrobial activity against Pseudomonas aeruginosa; format: functional, organism-based
Salmonella enterica = assay: Antimicrobial activity against Salmonella enterica; format: functional
Escherichia coli = assay: Antimicrobial activity against Escherichia coli; format: functional

Row | Structure (SMILES) | IC50 (Lipopolysaccharide (LPS); read-out: IC50) [nmol/mL] | MIC (Pseudomonas aeruginosa) | IC50 (Lipopolysaccharide (LPS)) [nmol/mL] | MIC (Salmonella enterica) [µM] | MIC (Escherichia coli) [µM]
1 | C[C@@H](O)[C@H](N)C(=O)N[C@@H](CCN)C(=O)N[C@H]1CCNC(=O)[C@H]([C@@H](C)O)NC(=O)[C@H](CCN)NC(=O)[C@H](CCN)NC(=O)[C@H](Cc2ccccc2)NC(=O)[C@@H](Cc2ccccc2)NC(=O)[C@H](CCN)NC1=O | 5 | ≥ 250 µg/mL |  |  | 
2 | C[C@@H]1NC(=O)[C@@H](Cc2ccccc2)NC(=O)[C@H](CCN)NC(=O)[C@@H](NC(=O)[C@H](CCN)NC(=O)[C@@H](N)[C@@H](C)O)CCNC(=O)[C@H]([C@@H](C)O)NC(=O)[C@H](CCN)NC(=O)[C@H](CCN)NC1=O | 12 | ≥ 250 µg/mL |  |  | 
3 | CC(C)C[C@@H]1NC(=O)[C@@H](Cc2ccc(O)cc2)NC(=O)[C@H](CCN)NC(=O)[C@@H](NC(=O)[C@H](CCN)NC(=O)[C@@H](N)[C@@H](C)O)CCNC(=O)[C@H]([C@@H](C)O)NC(=O)[C@H](CCN)NC(=O)[C@H](CCN)NC1=O | 25 | ≥ 500 µg/mL |  |  | 
4 | CC(C)C[C@@H]1NC(=O)[C@@H](Cc2c[nH]c3ccccc23)NC(=O)[C@H](CCN)NC(=O)[C@@H](NC(=O)[C@H](CCN)NC(=O)[C@@H](N)[C@@H](C)O)CCNC(=O)[C@H]([C@@H](C)O)NC(=O)[C@H](CCN)NC(=O)[C@H](CCN)NC1=O | 4 | ≥ 500 µg/mL |  |  | 
5 | CCCCCCCC(=O)N[C@@H](CCN)C(=O)N[C@H](C(=O)N[C@@H](CCN)C(=O)N[C@H]1CCNC(=O)[C@H]([C@@H](C)O)NC(=O)[C@H](CCN)NC(=O)[C@H](CCN)NC(=O)[C@H](CC(C)C)NC(=O)[C@@H](C)NC(=O)[C@H](CCN)NC1=O)[C@@H](C)O |  | 1 µM | 6 | 1 (≈ 1.11 µg/mL) | 1 (≈ 1.11 µg/mL)
6 | CCCCCCCC(=O)N[C@@H](CCN)C(=O)N[C@H](C(=O)N[C@@H](CCN)C(=O)N[C@H]1CCNC(=O)[C@H]([C@@H](C)O)NC(=O)[C@H](CCN)NC(=O)[C@H](CCN)NC(=O)[C@H](C)NC(=O)[C@@H](Cc2ccccc2)NC(=O)[C@H](CCN)NC1=O)[C@@H](C)O |  | 1 µM | 5 | 1 (≈ 1.15 µg/mL) | 1 (≈ 1.15 µg/mL)
7 | CCCCCCCC(=O)N[C@@H](CCN)C(=O)N[C@H](C(=O)N[C@@H](CCN)C(=O)N[C@H]1CCNC(=O)[C@H]([C@@H](C)O)NC(=O)[C@H](CCN)NC(=O)[C@H](CCNC(C)=O)NC(=O)[C@H](CC(C)C)NC(=O)[C@@H](Cc2ccccc2)NC(=O)[C@H](CCN)NC1=O)[C@@H](C)O |  | 2 µM | 26 | 4 (≈ 4.93 µg/mL) | 2 (≈ 2.46 µg/mL)
8 | CCCCCCCC(=O)N[C@@H](CCN)C(=O)N[C@H](C(=O)N[C@@H](CCN)C(=O)N[C@H]1CCNC(=O)[C@H]([C@@H](C)O)NC(=O)[C@H](CCN)NC(=O)[C@H](CCN)NC(=O)[C@H](C)NC(=O)[C@@H](C)NC(=O)[C@H](CCN)NC1=O)[C@@H](C)O |  | 4 µM | 8 | 32 (≈ 34.3 µg/mL) | 2 (≈ 2.14 µg/mL)
9 | CCCCCCCC(=O)N[C@@H](CCN)C(=O)N[C@H](C(=O)N[C@@H](CCN)C(=O)N[C@H]1CCNC(=O)[C@H]([C@@H](C)O)NC(=O)[C@H](CCN)NC(=O)[C@H](CCN)NC(=O)CNC(=O)[C@@H](Cc2ccccc2)NC(=O)[C@H](CCN)NC1=O)[C@@H](C)O |  | 2 µM | 11 | 2 (≈ 2.27 µg/mL) | 1 (≈ 1.13 µg/mL)
10 | CCCCCCCC(=O)N[C@@H](CCN)C(=O)N[C@H](C(=O)N[C@@H](CCN)C(=O)N[C@H]1CCNC(=O)[C@H]([C@@H](C)O)NC(=O)[C@H](CCN)NC(=O)[C@H](CCN)NC(=O)[C@H](Cc2c[nH]c3ccccc23)NC(=O)[C@@H](Cc2ccccc2)NC(=O)[C@H](CCN)NC1=O)[C@@H](C)O |  | 2 µM | 5 | 2 (≈ 2.53 µg/mL) | 2 (≈ 2.53 µg/mL)
11 | CCCCCCCC(=O)N[C@H]1CCNC(=O)[C@H]([C@@H](C)O)NC(=O)[C@H](CCN)NC(=O)[C@H](CCN)NC(=O)[C@H](CC(C)C)NC(=O)[C@@H](Cc2ccccc2)NC(=O)[C@H](CCN)NC1=O |  | 128 µM | 30 | 128 (≈ 114 µg/mL) | 128 (≈ 114 µg/mL)
12 | CCCCCCCC(=O)N[C@@H](CCN)C(=O)N[C@H](C(=O)N[C@@H](CCN)C(=O)N[C@H]1CCNC(=O)[C@H]([C@@H](C)O)NC(=O)[C@H](CCN)NC(=O)[C@H](CCN)NC(=O)[C@H](CC(C)C)NC(=O)[C@H](Cc2ccccc2)NC(=O)[C@H](CCN)NC1=O)[C@@H](C)O |  | 2 µM | 10 | 2 (≈ 2.38 µg/mL) | 2 (≈ 2.38 µg/mL)
